Structures are written as SMILES. Calls of active or inactive are those of the source. The calls are words filed in the database; no cut-off is given here.

Data set [1] has as its system Lung. Put plainly: Protection against pulmonary hypertension in Sugen-Hypoxia (SuHx) rat model assessed as reduction in gamma-H2AX foci in lungs. The format is functional, tissue-based.
Data set [2] relates to Lung. In words: Protection against pulmonary hypertension in Sugen-Hypoxia (SuHx) rat model assessed as reduction in 53BP1 foci in lungs. Format: functional, tissue-based.
For data set [3], the system named is Liver. In words: Hepatotoxicity in rats at 0.15 to 1.5 mg administered via instillation in to trachea. Format: toxicity. The note with it: rat, in vivo, inhaled_or_intranasal; dose 0.15-1.5 mg.

As to `CCc1oc2ccccc2c1C(=O)c1ccc(O)cc1` [BENZARONE], the outcome in data set [1] and in data set [2] was Active. In addition, the Activity result in data set [3] is “Non-Toxic”.

Source of the values: ChEMBL document CHEMBL5050836, “Inhibitors of eya3-protein tyrosine phosphatase in dna damage repair signaling of pulmonary arterial hypertension” (2021).
